# Measured values from US10583119B2, “Compounds, compositions and methods for making the same” (Signum Biosciences, Inc., priority 2008, dated 2020).
# Assays:
# [1] = test system: Thyl-alpha-synuclein transgenic mice; assay: Locomotor tests (open field, rota-rod) in alpha-synuclein over-expressing mice; type: in vivo; conditions: 0.001% diet (p=0.068)
# Procedure: Transgenic mice over-expressing the full length human alpha-synuclein have been described previously, and are excellent models for sensorimotor tests that are sensitive to alterations in the nigrostriatal dopaminergic system [Fleming, S. M. et. al, J. Neurosci. 24, 9434-40, (2004)].
# Thyl-alpha-synuclein transgenic mice (9-12 weeks old) and age-matched wild type mice were housed in clear plastic cages in a temperature-, and humidity-controlled environment with a 12 hour-light/dark cycle (light switched on at 7 a.m.), and were maintained on an ad libitum diet of lab chow and water. The animal feeds used were either normal (Control) or formulated with Compound I-63 at 0.001% and 0.1%. […]
# Locomotor activity was assessed in an open field paradigm by a Digiscan activity monitor utilizing a grid of infrared beams that record the location and path of the animal (horizontal activity) as well as the number of rearing movements (vertical activity). […] Each mouse was then placed in the middle of an open field chamber (42×42 cm acrylic animal cages, AccuScan Instruments) and locomotion was recorded for 10 min. The infrared light beam sensors were connected to a computer that recorded animal position every millisecond. […] The total number of squares crossed by each mouse was recorded and average horizontal and vertical activities was determined for each group of mice. […]
# Ob/Ob Mice = assay: Non-fasted glucose levels in ob/ob mice; type: in vivo
# From the text: They are also hypometabolic and hypothermic. The obesity is characterized by an increase in both the number and the size of adipocytes. Although hyperphagia contributes to the obesity, homozygotes gain excess weight and deposit excess fat even when restricted to a diet sufficient for normal weight maintenance in lean mice. Mice heterozygous for the Lep^ob mutation appear like wild-type and are lean.
# Forty-eight (48) B6.V-Lep^ob/J mice (00632, The Jackson Laboratory, JAX^6 mice), homozygous for the Lep^ob mutation and thirty six (36) controls B6.V-Lep^ob/J-lean, heterozygous for the Lep^ob mutation were used to study the effect of SIG1012 on non-fasted glucose levels. The mice were ear notched for identification and housed in individually and positively ventilated polycarbonate cages with HEPA filtered air at a density of 3 mice per cage. Bed-o-cob corn cob bedding was used and cages were changed every two weeks. The animal room was lighted entirely with artificial fluorescent lighting, with a controlled 12 h light/dark cycle (7 am to 7 pm light). The normal temperature and relative humidity ranges in the animal rooms were 22±4° C. and 50±15%, respectively. The animal rooms were set to have 15 air exchanges per hour. Filtered tap water, acidified to a pH of 2.8 to 3.2, and LabDiet AIN-76A was provided ad libitum.
# Following acclimation, mice were assigned to groups A through G according to their body weight and genotype:
# A Lean heterozygotes—B6.V-Lep^ob/J-lean Mice Fed Control Diet (AIN-76A);
# B Lean heterozygotes—B6.V-Lep^ob/J-lean Mice Fed “Low” Compound I-63 (AIN-76A with 0.001% Compound I-63);
# C Lean heterozygotes—B6.V-Lep^ob/J-lean Mice Fed “Medium” Compound I-63 (AIN-76A with 0.1% Compound I-63);
# D Obese homozygotes—B6. V-Lep^ob/J Mice Fed Control Diet (AIN-76A);
# E Obese homozygotes—B6N-Lep^ob/J Mice Fed “Low” Compound I-63 (AIN-76A with 0.001% Compound I-63); […]
# Mice from Groups A through G were maintained on the respective diet for 14 days and blood glucose levels were measured weekly.
# phosphorylated Tau = assay: Phosphorylated tau in vivo, weekly up to 4 weeks (PHF1 Western blot of brain); set-up: species or system mice; conditions: 0.1% by weight in feed, mouse brain
# Procedure: Swiss Webster mice ([…]) were fed ad libitum, either standard rodent chow (Control), or rodent chow formulated with 0.1 g Compound I-63 per 100 g chow (0.1% Compound I-63); water was changed weekly. Mice were housed at 23° C., on a 12 hour light and dark cycle, with 6 mice per cage. At weekly intervals up to 4 weeks, three and six mice from the Control and 0.1% Compound I-63 groups respectively were sacrificed by cervical dislocation, brains removed, snap-frozen in liquid nitrogen, and were stored at −80° C. Brains were homogenized in 350 pi of buffer containing 20 mM MOPS-Na, pH 7.2, 1 mM EDTA/DTT, 0.5 mg/L of aprotinin, leupeptin and pepstatin, 100 nM okadaic acid, and clarified by centrifugation (14,000 rpm, 10 min, 4° C.). Supernatant protein concentrations were measured by the Bradford method, 4 volumes of the supernatant and 1 volume of 5×SDS sample buffer were mixed and boiled for 2 minutes. 40 pg of the boiled homogenate were loaded on 12% polyacrylamide gels, and transferred to nitrocellulose membranes. Membranes are blocked in 5% BSA+TBST for 1 hour at room temperature, and incubated overnight at 4° C. with the following primary antibodies at the indicated dilutions: PHF1 mAb (recognizes phospho-Serine 396/404) at 1:2000, Tau-5 (Millipore; pan-tau mAb) at 1:10,000, and anti-GAPDH (Sigma mAb; used as loading control) at 1:50,000. Protein bands were detected with the ECL Plus reagent (GE Healthcare) and blots were exposed to Kodak XOmat film. Densitometric analyses were performed with ImageJ software. For relative phospho-tau levels of the Compound I-63-treated animals, the ratio of GAPDH-normalized phospho-tau to GAPDH-normalized total tau was further normalized to the corresponding ratios for the control group of mice. Error bars represent the standard error of the means.
# PP2A = biological target: T1, PP2A (Homo sapiens, UniProt P67775); assay: Phosphatase activity of PP2A using pNPP as substrate; type: biochemical; conditions: un-methylated PP2A, non-protein substrate pNPP, absence of ME and MT
# T1 construct: made in house
# Procedure: PP2A (10-200 nM) and pNPP (5-10 mM, Sigma) were mixed into 96-well plate (Fisher Scientific Inc.) in 50 μL of the buffer required. Reactions were performed at room temperature, and fully stopped by adding equal volume of 0.1 M EDTA. Production of p-nitrophenol […] was quantified by absorbance of reaction mixtures at 405 nm using the VMax® microplate reader (Molecular Devices).
# T1 sequence (P67775 whole entry): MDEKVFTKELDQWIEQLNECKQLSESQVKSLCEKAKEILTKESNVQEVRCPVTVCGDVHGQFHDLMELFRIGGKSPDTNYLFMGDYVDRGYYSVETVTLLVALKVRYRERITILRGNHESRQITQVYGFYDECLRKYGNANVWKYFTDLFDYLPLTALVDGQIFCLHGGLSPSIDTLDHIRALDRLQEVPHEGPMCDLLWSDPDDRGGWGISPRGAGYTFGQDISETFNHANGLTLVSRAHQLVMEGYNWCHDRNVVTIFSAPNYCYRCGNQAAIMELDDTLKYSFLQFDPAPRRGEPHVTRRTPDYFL
# T1 sequence (P30153 whole entry partner): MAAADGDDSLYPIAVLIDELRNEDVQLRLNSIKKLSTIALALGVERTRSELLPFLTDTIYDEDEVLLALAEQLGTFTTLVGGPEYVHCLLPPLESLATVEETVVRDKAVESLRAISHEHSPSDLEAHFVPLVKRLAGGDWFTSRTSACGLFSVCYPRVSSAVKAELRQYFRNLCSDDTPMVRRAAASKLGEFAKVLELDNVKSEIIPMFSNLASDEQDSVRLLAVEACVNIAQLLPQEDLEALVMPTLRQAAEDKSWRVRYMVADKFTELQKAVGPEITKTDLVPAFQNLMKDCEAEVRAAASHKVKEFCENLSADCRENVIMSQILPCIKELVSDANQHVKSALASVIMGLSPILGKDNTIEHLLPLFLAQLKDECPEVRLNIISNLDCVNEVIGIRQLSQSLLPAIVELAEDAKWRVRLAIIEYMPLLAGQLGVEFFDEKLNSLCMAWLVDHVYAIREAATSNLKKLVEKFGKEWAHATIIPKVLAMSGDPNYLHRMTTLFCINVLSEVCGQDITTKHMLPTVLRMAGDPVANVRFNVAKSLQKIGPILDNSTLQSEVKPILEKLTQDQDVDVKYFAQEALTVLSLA
smiles,measurement,setting,value
"CCCCCCCCCCCCCCCCCCCC(=O)NCCc1c[nH]c2ccc(O)cc12 [Compound I-63, N-(2-(5-hydroxy-1H-indol-3-yl)ethyl)icosanamide]",horizontal activity,[1],increase
same,effect on non-fasted blood glucose levels,Ob/Ob Mice; heterozygous lean mice control,No effect
same,reduction in non-fasted blood glucose levels,"Ob/Ob Mice; homozygous obese mice, compound in diet for 14 days",26-30%
same,reduction in phosphorylation of tau compared to control,phosphorylated Tau; four weeks,≥ 70%
same,reduction in phosphorylation of tau compared to control,phosphorylated Tau; three weeks,> 50%
same,reduction in phosphorylation of tau compared to control,phosphorylated Tau; two weeks,< 40%
same,IC50,PP2A,> 100 µM
